≈ marks a conversion by molar mass, not a printed value.
Legend:
hERG ion channel = hERG ion channel (Homo sapiens, UniProt Q12809); assay: hERG activity (process of Bridgland-Taylor et al.); assay type: cell-based
Method: hERG activity was assessed using the process described by Bridgland-Taylor, M. H., et al, J. Pharm. Tox. Methods 54 (2006) 189-199.

[1] = Aqueous solubility in pH 7.4 phosphate buffer; assay type: physicochemical; conditions: thermodynamic from solid, equilibration 24 h at 25° C.
Method: Solubility was determined in pH 7.4 phosphate buffer after equilibration for 24 h at 25° C. and HPLC-UV and LC-MSMS were used for quantitation.

human mGluR2 = target: T1, human mGluR2 (Homo sapiens, UniProt Q14416); assay: [35S]-GTPγS binding assay, allosteric activator activity with CHO cell membranes; assay type: biochemical; conditions: membranes of CHO cells expressing human mGluR2, 1 μM glutamate; read-out: GTPgS EC50
T1 construct: expressed in transfected cells; host or cells: CHO cells, stably transfected; membranes
T1 sequence (Q14416 19-872): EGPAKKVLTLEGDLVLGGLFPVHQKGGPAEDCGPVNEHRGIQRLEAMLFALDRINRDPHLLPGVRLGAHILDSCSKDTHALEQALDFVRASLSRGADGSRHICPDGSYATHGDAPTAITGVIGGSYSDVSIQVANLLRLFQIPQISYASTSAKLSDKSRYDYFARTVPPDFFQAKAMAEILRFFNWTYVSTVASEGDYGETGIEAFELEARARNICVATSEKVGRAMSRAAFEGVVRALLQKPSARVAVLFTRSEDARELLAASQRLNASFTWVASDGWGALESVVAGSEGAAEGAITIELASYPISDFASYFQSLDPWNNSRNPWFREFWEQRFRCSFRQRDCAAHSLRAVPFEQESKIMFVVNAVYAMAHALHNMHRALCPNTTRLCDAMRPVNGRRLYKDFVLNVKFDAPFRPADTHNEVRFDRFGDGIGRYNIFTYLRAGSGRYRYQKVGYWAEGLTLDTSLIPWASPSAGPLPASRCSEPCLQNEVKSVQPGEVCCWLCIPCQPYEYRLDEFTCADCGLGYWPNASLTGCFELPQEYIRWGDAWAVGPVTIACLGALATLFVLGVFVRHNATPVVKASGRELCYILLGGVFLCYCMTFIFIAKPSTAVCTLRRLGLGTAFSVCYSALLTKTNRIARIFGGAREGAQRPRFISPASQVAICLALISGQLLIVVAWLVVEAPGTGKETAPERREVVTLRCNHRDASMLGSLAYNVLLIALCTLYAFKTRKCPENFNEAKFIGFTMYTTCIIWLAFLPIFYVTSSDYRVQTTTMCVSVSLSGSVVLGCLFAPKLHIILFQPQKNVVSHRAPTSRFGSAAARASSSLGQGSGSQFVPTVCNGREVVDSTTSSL
Method: A [^35S]-GTPγS binding assay was used to functionally assay mGluR2 receptor activation. The allosteric activator activity of compounds at the human mGluR2 receptor were measured using a [^35S]-GTPγS binding assay with membranes prepared from CHO cells which stably express the human mGluR2. The assay is based upon the principle that agonists bind to G-protein coupled receptors to stimulate GDP-GTP exchange at the G-protein. Since [^35S]-GTPγS is a non-hydrolyzable GTP analog, it can be used to provide an index of GDP-GTP exchange and, thus, receptor activation. The GTPγS binding assay therefore provides a quantitative measure of receptor activation.
Membranes were prepared from CHO cells stably transfected with human mGluR2. Membranes (30 μg protein) were incubated with test compound (3 nM to 300 μM) for 15 minutes at room temperature prior to the addition of 1 μM glutamate, and incubated for 30 min at 30° C. in 500 μl assay buffer (20 mM HEPES, 100 mM NaCl, 10 mM MgCl2), containing 30 μM GDP and 0.1 nM [^35S]-GTPγS (1250 Ci/mmol). Reactions were carried out in triplicate in 2 ml polypropylene 96-well plates. Reactions were terminated by vacuum filtration using a Packard 96-well harvester and Unifilter-96, GF/B filter microplates. The filter plates were washed 4×1.5 ml with ice-cold wash buffer (10 mM sodium phosphate buffer, pH 7.4). The filter plates were dried and 35 μl of scintillation fluid (Microscint 20) was added to each well. The amount of radioactivity bound was determined by counting plates on the Packard TopCount. Data was analyzed using GraphPad Prism, and EC50 and Emax values (relative to the maximum glutamate effect) were calculated using non-linear regression.

Chain of hERG ion channel (Q12809 whole entry): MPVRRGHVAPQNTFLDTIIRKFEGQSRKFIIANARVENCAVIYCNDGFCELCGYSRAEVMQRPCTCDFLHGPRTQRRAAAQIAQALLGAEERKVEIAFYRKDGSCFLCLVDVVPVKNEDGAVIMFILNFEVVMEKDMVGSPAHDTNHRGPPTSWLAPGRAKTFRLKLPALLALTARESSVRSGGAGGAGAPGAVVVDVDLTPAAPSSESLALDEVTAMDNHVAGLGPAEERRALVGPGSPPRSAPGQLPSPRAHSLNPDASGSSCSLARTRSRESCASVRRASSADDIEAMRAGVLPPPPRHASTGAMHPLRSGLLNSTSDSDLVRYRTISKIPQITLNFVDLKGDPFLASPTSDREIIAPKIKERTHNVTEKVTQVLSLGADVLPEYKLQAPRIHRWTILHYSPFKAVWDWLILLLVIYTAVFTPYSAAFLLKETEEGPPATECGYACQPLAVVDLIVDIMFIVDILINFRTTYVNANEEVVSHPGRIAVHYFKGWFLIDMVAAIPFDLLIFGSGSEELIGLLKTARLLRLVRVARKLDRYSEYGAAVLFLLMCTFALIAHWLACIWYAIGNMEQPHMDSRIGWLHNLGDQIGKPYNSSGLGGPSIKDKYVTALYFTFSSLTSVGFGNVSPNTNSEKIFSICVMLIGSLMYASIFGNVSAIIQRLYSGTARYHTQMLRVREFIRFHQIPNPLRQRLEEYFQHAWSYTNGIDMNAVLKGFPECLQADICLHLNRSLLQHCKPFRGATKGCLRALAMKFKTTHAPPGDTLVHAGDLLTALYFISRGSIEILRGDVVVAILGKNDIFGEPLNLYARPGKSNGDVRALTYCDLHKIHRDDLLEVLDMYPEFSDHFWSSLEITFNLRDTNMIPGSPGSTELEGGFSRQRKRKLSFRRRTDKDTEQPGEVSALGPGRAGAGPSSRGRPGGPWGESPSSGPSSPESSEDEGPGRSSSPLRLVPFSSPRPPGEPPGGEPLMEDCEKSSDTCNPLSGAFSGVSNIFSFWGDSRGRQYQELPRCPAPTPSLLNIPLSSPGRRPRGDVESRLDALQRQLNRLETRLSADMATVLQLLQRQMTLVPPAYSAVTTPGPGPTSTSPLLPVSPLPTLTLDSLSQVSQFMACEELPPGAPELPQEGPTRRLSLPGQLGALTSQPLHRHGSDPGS

| solubility at 24 h [1] | EC50 (human mGluR2) | Compound | hERG (hERG ion channel) |
| --- | --- | --- | --- |
| 44.9 µM (≈ 21.9 µg/mL) | – | Cc1cc(-c2nc(CN3CCNCC3)no2)cc2c1C(=O)N(Cc1ccc(OC(F)(F)F)cc1)C2 [Example 1, 7-Methyl-5-(3-piperazin-1-ylmethyl-[1,2,4]oxadiazol-5-yl)-2-(4-trifluoromethoxybenzyl)-2,3-dihydroisoindol-1-one] | 11.0 µM |
| 336 µM (≈ 151 µg/mL) | 206 nM | Cc1cc(-c2nc(CN3C[C@@H]4C[C@H]3CN4)no2)cc2c1C(=O)N(Cc1ccc(Cl)cc1)C2 [Example 2, 2-(4-Chloro-benzyl)-5-[3-(2,5-diaza-bicyclo[2.2.1]hept-2-ylmethyl)-[1,2,4]oxadiazol-5-yl]-7-methyl-2,3-dihydro-isoindol-1-one] | 33.0 µM |
| 396 µM (≈ 179 µg/mL) | 154 nM | Cc1cc(-c2nc(CN3CCNC(C)C3)no2)cc2c1C(=O)N(Cc1ccc(Cl)cc1)C2 (centres unmarked) [Example 3, 2-(4-Chloro-benzyl)-7-methyl-5-[3-(3-methyl-piperazin-1-ylmethyl)-[1,2,4]oxadiazol-5-yl]-2,3-dihydro-isoindol-1-one] | 12.0 µM |
| > 500 µM | 378 nM | Cc1cc(-c2nc(CN3CCNCC3)no2)cc2c1C(=O)N(Cc1ccc(Cl)cc1)C2 [Example 4, 2-(4-Chloro-benzyl)-7-methyl-5-(3-piperazin-1-ylmethyl-[1,2,4]oxadiazol-5-yl)-2,3-dihydro-isoindol-1-one] | 25.0 µM |
| 384 µM (≈ 174 µg/mL) | 352 nM | Cc1cc(-c2nc(CN3CCNC[C@@H]3C)no2)cc2c1C(=O)N(Cc1ccc(Cl)cc1)C2 [Example 5, 2-(4-Chloro-benzyl)-7-methyl-5-[3-(2-methyl-piperazin-1-ylmethyl)-[1,2,4]oxadiazol-5-yl]-2,3-dihydro-isoindol-1-one] | 12.6 µM |
| > 500 µM | 317 nM | Cc1cc(-c2nc(CN3CCNC[C@H]3C)no2)cc2c1C(=O)N(Cc1ccc(Cl)cc1)C2 [Example 6, 2-(4-Chloro-benzyl)-7-methyl-5-[3-(2-methyl-piperazin-1-ylmethyl)-[1,2,4]oxadiazol-5-yl]-2,3-dihydro-isoindol-1-one] | 18.7 µM |

Source: patent US8377939B2, “Oxadiazole derivatives and their use as metabotropic glutamate receptor potentiators 842” (AstraZeneca AB, priority 2007, dated 2013)
